The source of these data is PMC10976095 (Vaccines, 2024).

Targets include HLA-B*07:02 (Homo sapiens, UniProt P01889); HLA-A*26:01 (Homo sapiens, UniProt P04439, A114D/A173T/A270S/D101N/D185E/E277Q/E87N/F33Y/G231S/I121R/I218V/K168Q/L180W/L300P/L318F/P208A/P217A/Q86R/Q94H/R138Q/S129P/T187R/T323A/T345S/V100A/V358M); HLA-A*68:02 (Homo sapiens, UniProt P04439, A269V/D140Y/D185E/E176V/E277Q/E87N/F33Y/G231S/I121R/I166T/I218V/L180W/L300P/L318F/N151K/P208A/P217A/Q86R/R138H/R169H/S129P/T345S/V36M); HLA-A*03:01 (Homo sapiens, UniProt P04439); HLA-A*11:01 (Homo sapiens, UniProt P04439, A114D/D185E/E176A/F33Y/L180Q/S129P/T187R); HLA-A*68:01 (Homo sapiens, UniProt P04439, A269V/D185E/E176V/E277Q/E87N/F33Y/G231S/I121M/I166T/I218V/L180W/L300P/L318F/N151K/P208A/P217A/Q86R/R169H/T345S); HLA-A*30:01 (Homo sapiens, UniProt P04439, D140H/D185E/E176W/F33S/G80R/H175R/K168Q/R138E/R41S); HLA-A*31:01 (Homo sapiens, UniProt P04439, A270S/D185E/E176V/E277Q/F33T/G231S/G80R/H175R/I121M/I218V/I322F/K168Q/L300P/L318F/M331R/P217A/Q94H/R138Q/T323A/T345S/T97I/V358M).

Holding throughout (experiment): biochemical
What all share (format): binding

Molecules are shown by their SMILES. Where a SMILES comes first, the peptide text is derived from it.

With `CC(C)C[C@H](NC(=O)[C@H](C)NC(=O)[C@H](CCC(N)=O)NC(=O)[C@H](CCCCN)NC(=O)[C@H](Cc1ccccc1)NC(=O)[C@H](CO)NC(=O)[C@H](C)NC(=O)[C@@H](NC(=O)[C@@H](N)CCC(=O)O)C(C)C)C(=O)O` [EVASFKQAL] (H-EVASFKQAL-OH), the concentration for half-maximal inhibition (IC50) – broadly, the point on the concentration scale where inhibition reaches its midpoint – on HLA-B*07:02 was 250 nM; against HLA-A*26:01 it was 86 nM; against HLA-A*68:02 it was 2.7 nM.
Take `CC(C)C[C@H](NC(=O)[C@H](CO)NC(=O)[C@H](CS)NC(=O)[C@H](Cc1ccccc1)NC(=O)[C@H](CO)NC(=O)[C@@H](N)CC(C)C)C(=O)N[C@@H](Cc1ccccc1)C(=O)N[C@@H](CC(C)C)C(=O)N1CCC[C@H]1C(=O)N[C@@H](CCCCN)C(=O)O` (H-LSFCSLFLPK-OH): the IC50 against HLA-A*03:01 amounted to 4.3 nM; against HLA-A*11:01, 0.68 nM; against HLA-A*68:01 it was 1 nM; against HLA-A*30:01, 238 nM; against HLA-A*31:01, 686 nM.
